pIC50, pKi: −log10 of the molar value. Converted amounts (≈) assume the structure as drawn. One block for each molecule: values may come before it.
Legend:
[1] = biological target: Tyrosine-protein kinase BTK (Homo sapiens, UniProt Q06187); assay: Inhibition of BTK in human whole blood; format: tissue-based
[2] = Aqueous solubility of the compound; format: physicochemical
[3] = biological target: Human immunodeficiency virus type 1 protease (Human immunodeficiency virus 1, UniProt Q72874); assay: Binding affinity to HIV-1 protease assessed as inhibition constant incubated for 60 mins by mass spectrometric analysis

Tyrosine-protein kinase BTK, sequence (Q06187 whole entry): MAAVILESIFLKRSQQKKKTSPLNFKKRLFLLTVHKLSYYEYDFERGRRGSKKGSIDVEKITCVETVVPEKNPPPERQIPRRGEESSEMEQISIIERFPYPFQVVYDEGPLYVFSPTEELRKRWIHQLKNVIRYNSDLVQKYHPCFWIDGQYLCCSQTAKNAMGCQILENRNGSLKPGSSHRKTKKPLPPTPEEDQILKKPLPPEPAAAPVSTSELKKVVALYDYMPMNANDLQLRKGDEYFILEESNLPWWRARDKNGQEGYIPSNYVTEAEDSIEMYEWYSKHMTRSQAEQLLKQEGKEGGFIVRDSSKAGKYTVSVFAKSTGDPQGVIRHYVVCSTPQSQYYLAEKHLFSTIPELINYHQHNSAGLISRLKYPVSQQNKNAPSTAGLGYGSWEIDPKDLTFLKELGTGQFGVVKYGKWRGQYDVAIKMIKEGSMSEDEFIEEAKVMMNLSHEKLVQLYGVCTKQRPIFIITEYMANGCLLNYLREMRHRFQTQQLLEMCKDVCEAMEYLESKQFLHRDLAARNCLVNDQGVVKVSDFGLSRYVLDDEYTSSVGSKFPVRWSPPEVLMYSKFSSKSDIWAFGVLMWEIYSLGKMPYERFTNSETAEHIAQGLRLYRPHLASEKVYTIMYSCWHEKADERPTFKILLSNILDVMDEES

pIC50 [1]: 9.00
Compound: Cn1cc(-c2cccc(-n3ncc4cc(C(C)(C)C)cc(F)c4c3=O)c2CO)cc(Nc2ccc(C(=O)N3CCOCC3)cn2)c1=O

solubility [2]: 1 µg/mL (≈ 1.5 µM)
Compound: Cn1c2c(cc(Nc3ccc(C(=O)N4CCOCC4)cn3)c1=O)-c1cccc(-n3ncc4cc(C(C)(C)C)cc(F)c4c3=O)c1C[C@H](O)C2

Compound: CC(C)[C@H]1Cc2cc(F)ccc2S(=O)(=O)N(C[C@@H](O)[C@H](Cc2ccccc2)NC(=O)O[C@H]2CCOC2)C1
pKi [3]: 9.44

— ChEMBL document CHEMBL5104099, “Recent applications of seven-membered rings in drug design” (Bioorg Med Chem, 2022)
